The record followed here is US12319672B2, “Alpha-D-galactopyranoside derivatives” (Idorsia Pharmaceuticals Ltd, priority 2019, dated 2025).

As a reminder, the IC50 is the concentration at which inhibition is half-maximal. Low readings indicate greater potency, high ones weaker potency.

The structures appear in SMILES notation.

In one test the target is human Gal-1 (hGal-1). Nature of the test: Competitive binding assay: binding of biotinylated hGal-1 to microplate-adsorbed asialofetuin (ASF). The following applies: Activities on hGal-1; mean values of several measurements. In short, it runs like this: (§1)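 Biotin-hGal-3/hGal-1 300-1000 ng/mL + cpd (DMSO dilutions) on ASF-coated plate, 3 h 4° C; wash; SA-HRP 80 ng/mL 1 h 4° C; wash; ABTS. IC50 = mean of several runs. hGal-1 preferably Cys→Ser (all six) mutant.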
human Gal-1 (hGal-1), sequence (P09382 2-135 limits assumed): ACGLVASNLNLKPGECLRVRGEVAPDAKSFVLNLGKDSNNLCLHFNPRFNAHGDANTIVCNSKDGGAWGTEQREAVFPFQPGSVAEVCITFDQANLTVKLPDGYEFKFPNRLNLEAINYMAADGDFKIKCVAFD

The target in another test is human Gal-3 (hGal-3) (Homo sapiens (Human), UniProt P17931). Nature of the test: Competitive binding assay: binding of biotinylated hGal-3 to microplate-adsorbed asialofetuin (ASF). The following applies: Activity on hGal-3; mean values of several measurements. In short, it runs like this: as §1
human Gal-3 (hGal-3), sequence (P17931 whole entry): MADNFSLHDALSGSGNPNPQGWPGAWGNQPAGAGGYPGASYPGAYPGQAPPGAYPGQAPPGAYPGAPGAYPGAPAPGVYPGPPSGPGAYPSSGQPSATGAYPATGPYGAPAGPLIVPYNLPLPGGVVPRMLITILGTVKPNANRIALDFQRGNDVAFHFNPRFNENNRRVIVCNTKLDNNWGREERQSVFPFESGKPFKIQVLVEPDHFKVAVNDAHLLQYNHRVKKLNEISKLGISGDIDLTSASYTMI

Turning to `CO[C@@H]1[C@@H](n2cc(-c3ccc(C)c(F)c3F)nn2)[C@@H](O)[C@@H](CO)O[C@@H]1Cc1cc(C(C)(C)O)no1` [Example 2.62, (2R,3R,4S,5R,6R)-4-(4-(2,3-difluoro-4-methylphenyl)-1H-1,2,3-triazol-1-yl)-2-(hydroxymethyl)-6-((3-(2-hydroxypropan-2-yl)isoxazol-5-yl)methyl)-5-methoxytetrahydro-2H-pyran-3-ol], the half-maximal inhibitory concentration (IC50) amounted to 2280 nM on human Gal-1 (hGal-1) and 36 nM at human Gal-3 (hGal-3).
Turning to `CO[C@@H]1[C@@H](n2cc(-c3ccc(Cl)c(F)c3F)nn2)[C@@H](O)[C@@H](CO)O[C@@H]1Cc1cc(C(C)(C)O)no1` [Example 2.63, (2R,3R,4S,5R,6R)-4-(4-(4-chloro-2,3-difluorophenyl)-1H-1,2,3-triazol-1-yl)-2-(hydroxymethyl)-6-((3-(2-hydroxypropan-2-yl)isoxazol-5-yl)methyl)-5-methoxytetrahydro-2H-pyran-3-ol], the half-maximal inhibitory concentration (IC50) at human Gal-1 (hGal-1) came to 1730 nM; at human Gal-3 (hGal-3), 74 nM.
Take `CO[C@@H]1[C@@H](n2cc(-c3cc(F)c(F)c(F)c3)nn2)[C@@H](O)[C@@H](CO)O[C@@H]1C[C@@H]1CC(C2CCNCC2)=NO1` [Example 3.06, (2R,3R,4S,5R,6R)-2-(hydroxymethyl)-5-methoxy-6-(((S)-3-(piperidin-4-yl)-4,5-dihydroisoxazol-5-yl)methyl)-4-(4-(3,4,5-trifluorophenyl)-1H-1,2,3-triazol-1-yl)tetrahydro-2H-pyran-3-ol]: the IC50 is 2090 nM on human Gal-1 (hGal-1) and 280 nM on human Gal-3 (hGal-3).
Turning to `CO[C@@H]1[C@@H](n2cc(-c3cc(F)c(F)c(F)c3)nn2)[C@@H](O)[C@@H](CO)O[C@@H]1C[C@H]1CC(C2CCNCC2)=NO1` [Example 3.07, (2R,3R,4S,5R,6R)-2-(hydroxymethyl)-5-methoxy-6-(((R)-3-(piperidin-4-yl)-4,5-dihydroisoxazol-5-yl)methyl)-4-(4-(3,4,5-trifluorophenyl)-1H-1,2,3-triazol-1-yl)tetrahydro-2H-pyran-3-ol], the IC50 turned out to be 15100 nM at human Gal-1 (hGal-1) and 1860 nM at human Gal-3 (hGal-3).
On to `OC[C@H]1O[C@H](Cc2cc(C3CCNCC3)on2)[C@H](O)[C@@H](n2cc(-c3cc(F)c(F)c(F)c3)nn2)[C@H]1O` [Example 3.08, (2R,3R,4R,5R,6R)-2-(hydroxymethyl)-6-((5-(piperidin-4-yl)isoxazol-3-yl)methyl)-4-(4-(3,4,5-trifluorophenyl)-1H-1,2,3-triazol-1-yl)tetrahydro-2H-pyran-3,5-diol], for which the half-inhibitory concentration (IC50) on human Gal-1 (hGal-1) came to 12500 nM; on human Gal-3 (hGal-3), 290 nM.
In the case of `CC(=O)N1CCC(C2=NO[C@@H](C[C@H]3O[C@H](CO)[C@H](O)[C@H](n4cc(-c5cc(F)c(F)c(F)c5)nn4)[C@H]3O)C2)CC1` [Example 3.10, 1-(4-((R)-5-(((2R,3R,4R,5R,6R)-3,5-dihydroxy-6-(hydroxymethyl)-4-(4-(3,4,5-trifluorophenyl)-1H-1,2,3-triazol-1-yl)tetrahydro-2H-pyran-2-yl)methyl)-4,5-dihydroisoxazol-3-yl)piperidin-1-yl)ethan-1-one], the IC50 at human Gal-1 (hGal-1) was determined as 5500 nM; on human Gal-3 (hGal-3) it was 620 nM.
As for `CC(=O)N1CCC(C2=NO[C@H](C[C@H]3O[C@H](CO)[C@H](O)[C@H](n4cc(-c5cc(F)c(F)c(F)c5)nn4)[C@H]3O)C2)CC1` [Example 3.11, 1-(4-((S)-5-(((2R,3R,4R,5R,6R)-3,5-dihydroxy-6-(hydroxymethyl)-4-(4-(3,4,5-trifluorophenyl)-1H-1,2,3-triazol-1-yl)tetrahydro-2H-pyran-2-yl)methyl)-4,5-dihydroisoxazol-3-yl)piperidin-1-yl)ethan-1-one], the IC50 on human Gal-1 (hGal-1) was 1380 nM; at human Gal-3 (hGal-3), 150 nM.
For `CO[C@@H]1[C@@H](n2cc(-c3cc(F)c(F)c(F)c3)nn2)[C@@H](O)[C@@H](CO)O[C@@H]1C[C@@H]1CC(C2CCN(C(C)=O)CC2)=NO1` [Example 3.12, 1-(4-((S)-5-(((2R,3R,4S,5R,6R)-5-hydroxy-6-(hydroxymethyl)-3-methoxy-4-(4-(3,4,5-trifluorophenyl)-1H-1,2,3-triazol-1-yl)tetrahydro-2H-pyran-2-yl)methyl)-4,5-dihydroisoxazol-3-yl)piperidin-1-yl)ethan-1-one], the IC50 came out at 520 nM on human Gal-1 (hGal-1) and 70 nM at human Gal-3 (hGal-3).
As to `CO[C@@H]1[C@@H](n2cc(-c3cc(F)c(F)c(F)c3)nn2)[C@@H](O)[C@@H](CO)O[C@@H]1C[C@H]1CC(C2CCN(C(C)=O)CC2)=NO1` [Example 3.13, 1-(4-((R)-5-(((2R,3R,4S,5R,6R)-5-hydroxy-6-(hydroxymethyl)-3-methoxy-4-(4-(3,4,5-trifluorophenyl)-1H-1,2,3-triazol-1-yl)tetrahydro-2H-pyran-2-yl)methyl)-4,5-dihydroisoxazol-3-yl)piperidin-1-yl)ethan-1-one], the IC50 at human Gal-1 (hGal-1) came to 4020 nM; on human Gal-3 (hGal-3), 670 nM.
`CC(=O)O[C@@H]1[C@@H](n2cc(-c3cc(F)c(F)c(F)c3)nn2)[C@@H](O)[C@@H](CO)O[C@@H]1Cc1cc(C2CCNCC2)on1` [Example 3.15, (2R,3R,4S,5R,6R)-5-hydroxy-6-(hydroxymethyl)-2-((5-(piperidin-4-yl)isoxazol-3-yl)methyl)-4-(4-(3,4,5-trifluorophenyl)-1H-1,2,3-triazol-1-yl)tetrahydro-2H-pyran-3-yl acetate]: the IC50 on human Gal-1 (hGal-1) stood at 13600 nM; on human Gal-3 (hGal-3) it was 140 nM.
On to `CO[C@@H]1[C@@H](n2cc(-c3cc(F)c(F)c(F)c3)nn2)[C@@H](O)[C@@H](CO)O[C@@H]1Cc1cc(C2CCNCC2)on1` [Example 3.16, (2R,3R,4S,5R,6R)-2-(hydroxymethyl)-5-methoxy-6-((5-(piperidin-4-yl)isoxazol-3-yl)methyl)-4-(4-(3,4,5-trifluorophenyl)-1H-1,2,3-triazol-1-yl)tetrahydro-2H-pyran-3-ol], for which the half-maximal inhibitory concentration (IC50) on human Gal-1 (hGal-1) turned out to be 5190 nM; at human Gal-3 (hGal-3), 220 nM.
As to `CC(=O)N1CCC([C@H]2CC(C[C@H]3O[C@H](CO)[C@H](O)[C@H](n4cc(-c5cc(F)c(F)c(F)c5)nn4)[C@H]3O)=NO2)CC1` [Example 3.19, 1-(4-((R)-3-(((2R,3R,4R,5R,6R)-3,5-dihydroxy-6-(hydroxymethyl)-4-(4-(3,4,5-trifluorophenyl)-1H-1,2,3-triazol-1-yl)tetrahydro-2H-pyran-2-yl)methyl)-4,5-dihydroisoxazol-5-yl)piperidin-1-yl)ethan-1-one], the figures for the concentration for half-maximal inhibition (IC50) on human Gal-1 (hGal-1) and at human Gal-3 (hGal-3) were 4720 nM and 430 nM, respectively.
`CC(=O)N1CCC([C@@H]2CC(C[C@H]3O[C@H](CO)[C@H](O)[C@H](n4cc(-c5cc(F)c(F)c(F)c5)nn4)[C@H]3O)=NO2)CC1` [Example 3.20, 1-(4-((S)-3-(((2R,3R,4R,5R,6R)-3,5-dihydroxy-6-(hydroxymethyl)-4-(4-(3,4,5-trifluorophenyl)-1H-1,2,3-triazol-1-yl)tetrahydro-2H-pyran-2-yl)methyl)-4,5-dihydroisoxazol-5-yl)piperidin-1-yl)ethan-1-one]: the figures for the half-inhibitory concentration (IC50) at human Gal-1 (hGal-1) and at human Gal-3 (hGal-3) were 1850 nM and 240 nM, respectively.
On to `CO[C@@H]1[C@@H](n2cc(-c3cc(F)c(F)c(F)c3)nn2)[C@@H](O)[C@@H](CO)O[C@@H]1Cc1cc(C2CCN(C(C)=O)CC2)on1` [Example 3.21, 1-(4-(3-(((2R,3R,4S,5R,6R)-5-hydroxy-6-(hydroxymethyl)-3-methoxy-4-(4-(3,4,5-trifluorophenyl)-1H-1,2,3-triazol-1-yl)tetrahydro-2H-pyran-2-yl)methyl)isoxazol-5-yl)piperidin-1-yl)ethan-1-one], for which the half-maximal inhibitory concentration (IC50) on human Gal-1 (hGal-1) is 590 nM; on human Gal-3 (hGal-3), 46 nM.
As to `CC(=O)O[C@@H]1[C@@H](n2cc(-c3cc(F)c(F)c(F)c3)nn2)[C@@H](O)[C@@H](CO)O[C@@H]1Cc1cc(C2CCN(C(C)=O)CC2)on1` [Example 3.22, (2R,3R,4S,5R,6R)-2-((5-(1-acetylpiperidin-4-yl)isoxazol-3-yl)methyl)-5-hydroxy-6-(hydroxymethyl)-4-(4-(3,4,5-trifluorophenyl)-1H-1,2,3-triazol-1-yl)tetrahydro-2H-pyran-3-yl acetate], the half-inhibitory concentration (IC50) on human Gal-1 (hGal-1) was 1870 nM; on human Gal-3 (hGal-3), 28 nM.
For the compound `CC(=O)O[C@@H]1[C@@H](n2cc(-c3cc(F)c(F)c(F)c3)nn2)[C@@H](O)[C@@H](CO)O[C@@H]1CC1=NO[C@@H](C2CCN(C(C)=O)CC2)C1` [Example 3.24, (2R,3R,4S,5R,6R)-2-(((R)-5-(1-acetylpiperidin-4-yl)-4,5-dihydroisoxazol-3-yl)methyl)-5-hydroxy-6-(hydroxymethyl)-4-(4-(3,4,5-trifluorophenyl)-1H-1,2,3-triazol-1-yl)tetrahydro-2H-pyran-3-yl acetate], the IC50 was 9190 nM at human Gal-1 (hGal-1) and 340 nM at human Gal-3 (hGal-3).
As to `CC(=O)O[C@@H]1[C@@H](n2cc(-c3cc(F)c(F)c(F)c3)nn2)[C@@H](O)[C@@H](CO)O[C@@H]1CC1=NO[C@H](C2CCN(C(C)=O)CC2)C1` [Example 3.25, (2R,3R,4S,5R,6R)-2-(((S)-5-(1-acetylpiperidin-4-yl)-4,5-dihydroisoxazol-3-yl)methyl)-5-hydroxy-6-(hydroxymethyl)-4-(4-(3,4,5-trifluorophenyl)-1H-1,2,3-triazol-1-yl)tetrahydro-2H-pyran-3-yl acetate], the IC50 at human Gal-1 (hGal-1) was determined as 2470 nM; on human Gal-3 (hGal-3), 170 nM.
For the compound `CCOC(=O)N1CCC(c2cc(C[C@H]3O[C@H](CO)[C@H](O)[C@H](n4cc(-c5cc(F)c(F)c(F)c5)nn4)[C@H]3O)no2)CC1` [Example 3.26, ethyl 4-(3-(((2R,3R,4R,5R,6R)-3,5-dihydroxy-6-(hydroxymethyl)-4-(4-(3,4,5-trifluorophenyl)-1H-1,2,3-triazol-1-yl)tetrahydro-2H-pyran-2-yl)methyl)isoxazol-5-yl)piperidine-1-carboxylate], the half-inhibitory concentration (IC50) on human Gal-1 (hGal-1) was determined as 930 nM; on human Gal-3 (hGal-3) it was 68 nM.
